{"source": "ChEMBL document CHEMBL1126466", "about": "“Chemical synthesis of D-erythro-sphingosine-1-phosphate, and its inhibitory effect on cell motility” (1992)", "type_in_all_cases": "functional, B16/F1", "key": {"[1]": {"assay": "The compound was tested for inhibitory effect on motility of mouse melanoma B16/Fl cells in an in vitro Matri gel-coated transwell assay system at 0.001 uM concentration"}, "[2]": {"assay": "The compound was tested for inhibitory effect on motility of mouse melanoma B16/Fl cells in an in vitro Matri gel-coated transwell assay system at 0.01 uM concentration expressed as percent migration"}, "[3]": {"assay": "The compound was tested for inhibitory effect on motility of mouse melanoma B16/Fl cells in an in vitro Matri gel-coated transwell assay system at 0.1 uM concentration expressed as percent migration"}, "[4]": {"assay": "The compound was tested for inhibitory effect on motility of mouse melanoma B16/Fl cells in an in vitro Matri gel-coated transwell assay system at 1 uM concentration"}, "[5]": {"assay": "The compound was tested for inhibitory effect on motility of mouse melanoma B16/Fl cells in an in vitro Matri gel-coated transwell assay system at 1 uM concentration expressed as percent migration"}, "[6]": {"assay": "The compound was tested for inhibitory effect on motility of mouse melanoma B16/Fl cells in an in vitro Matri gel-coated transwell assay system at 5 uM concentration expressed as percent migration"}, "[7]": {"assay": "The compound was tested for inhibitory effect on motility of mouse melanoma B16/Fl cells in an in vitro Matri gel-coated transwell assay system at 0.001 uM concentration expressed as percent migration"}}, "note": "Where “and” joins values, the source holds several entries; their conditions need not be identical. Identical values can stand only once."}
{"smiles": "CCCCCCCCCCCCC/C=C/[C@@H](O)[C@@H](N)COP(=O)(O)O", "values": [{"measurement": "Migration", "setting": "[1]", "result": 82, "unit": "%"}, {"measurement": "Migration", "setting": "[2]", "result": "12% and 17%"}, {"measurement": "Migration", "setting": "[3]", "result": "6% and 12%"}, {"measurement": "Migration", "setting": "[4]", "result": 10, "unit": "%"}, {"measurement": "Migration", "setting": "[5]", "result": 8, "unit": "%"}, {"measurement": "Migration", "setting": "[6]", "result": "34% and 41%"}, {"measurement": "Migration", "setting": "[7]", "result": 122, "unit": "%"}]}
{"smiles": "CCCCCCCCCCCCC/C=C/[C@@H](O)[C@@H](N)CO", "note": "[SPHINGOSINE]", "values": [{"measurement": "Migration", "setting": "[3]", "result": 90, "unit": "%"}, {"measurement": "Migration", "setting": "[5]", "result": 78, "unit": "%"}, {"measurement": "Migration", "setting": "[6]", "result": 12, "unit": "%"}]}
